According to paper PMC11528320, “S-MGBs bearing amidine tail groups are potent, selective antiplasmodial agents” (RSC Medicinal Chemistry, 2024):
Like-named read-outs stand apart in the source and are kept apart here.

Legend:
P. falciparum Dd2 = assay: in vitro asexual P. falciparum imaging assay, Dd2 strain; type: cell-based
Description: (§1) The antiplasmodial in vitro assay was performed as previously described.[13] In brief, P. falciparum parasites (3D7 and Dd2 strains) were grown in RPMI-1640 medium supplemented with 25 mM HEPES, 5% AB human male serum, 2.5 mg mL^−1 Albumax II, and 0.37 mM hypoxanthine. Parasites were subjected to two rounds of sorbitol synchronization prior to compound addition. Ring stage parasites were incubated with compounds in 384-well imaging CellCarrier microplates, for 72 h at 37 °C, 90% N2, 5% CO2, 5% O2, parasites stained with 4′,6-diamidino-2-phenylindole (DAPI) and imaged using an Opera QEHS microplate confocal imaging system (PerkinElmer). Images were analysed as previously described,[13] and raw data normalized using the in-plate positive and negative controls to obtain percent inhibition, used to calculate IC50 values, through a four-parameter logistic curve fitting in Prism (GraphPad).

P. falciparum 3D7 = assay: in vitro asexual P. falciparum imaging assay, 3D7 strain; type: cell-based
Description: as §1

HEK293 cells = assay: HEK293 cell viability (resazurin) assay; type: cell-based, Human; conditions: for IC50 / inhibition at 80 µM: Homo sapiens; for IC50: HEK293, 72 h; for SI, HEK293/3D7: ratio of HEK293 IC50 (or relative IC50) to P. falciparum 3D7 IC50; for inhibition at 80 µM: HEK293, 72 h
Description: Cell viability was assessed using a minor modification of the protocol previously described.[14] Human embryonic kidney cells (HEK293) were maintained in Dulbecco's modified Eagle's medium supplemented with 10% foetal bovine serum.

[1] = ratio of Dd2 IC50 to 3D7 IC50 (cross-resistance)
[2] = Plasmodium falciparum, DD2, 72 h; read-out: Dd2 IC50
[3] = Plasmodium falciparum, 3D7, 72 h; read-out: 3D7 IC50

Row | SMILES | IC50 (P. falciparum Dd2; Plasmodium falciparum, DD2, 72 h, read-out: Dd2 IC50) | Dd2/3D7 (P. falciparum Dd2; [1]) | IC50 (P. falciparum 3D7; Plasmodium falciparum, 3D7, 72 h, read-out: 3D7 IC50) | IC50 (HEK293 cells) | SI, HEK293/3D7 (HEK293 cells) | IC50 (P. falciparum Dd2; [2]) | IC50 (P. falciparum 3D7; [3]) | inhibition at 80 µM (HEK293 cells)
1 | CCN(CC)CCCC(C)Nc1ccnc2cc(Cl)ccc12 (centres unmarked) [Chloroquine, chloroquine, reference compound] | 225 ± 84.4 nM | 7.2 | 31.3 ± 9.7 nM | – | – | – | – | –
2 | COc1ccc(C[C@H](N)C(=O)N[C@H]2[C@@H](O)[C@H](n3cnc4c(N(C)C)ncnc43)O[C@@H]2CO)cc1 [Puromycin, puromycin, reference compound] | – | 1.2 | – | 378 nM | 9 | 49.3 ± 3.5 nM | 41.9 ± 7.2 nM | –
3 | CCc1nc(N)nc(N)c1-c1ccc(Cl)cc1 [Pyrimeth-amine, pyrimethamine, reference compound] | – | – | – | 3980 nM | 1478 | > 80000 nM | 2.69 ± 0.26 nM | –
4 | COc1ccc2nc3cc(Cl)ccc3c(Nc3cc(CN4CCCC4)c(O)c(CN4CCCC4)c3)c2n1 [Pyronaridine, pyronaridine, reference compound] | – | 1.3 | – | 3050 nM | 114 | 33.3 ± 6.1 nM | 26.7 ± 3.8 nM | –
5 | COc1cccc(/C=C/c2ccc(C(=O)Nc3cc(C(=O)Nc4cc(C(=O)NCCCN(C)C)n(C)c4)n(C)c3)cc2)c1.O=C(O)C(F)(F)F [S-MGB-131] | – | 1.3 | – | – | – | 254.4 ± 0.2 nM | 200 nM | 101%
6 | Cn1cc(NC(=O)c2cc(NC(=O)c3ccc(/C=C/c4ccc(C(F)(F)F)cc4)cc3)cn2C)cc1C(=O)NCCN1CCOCC1.O=C(O)C(F)(F)F [S-MGB-176] | – | 1.6 | – | – | >53 | 1236 ± 3 nM | 756 ± 0.8 nM | 80%
7 | Cn1cc(NC(=O)c2cc(NC(=O)c3ccc(/C=C/c4ccc5nsnc5c4)cc3)cn2C)cc1C(=O)NCCN1CCOCC1.O=C(O)C(F)(F)F [S-MGB-188] | – | 1.1 | – | – | >193 | 61.9 ± 0.3 nM | 57 ± 0.1 nM | 86%
8 | CC(C)n1cc(NC(=O)c2cc(NC(=O)c3ccc(/C=C/c4cnc5ccccc5c4)cc3)cn2C)cc1C(=O)NCCN1CCOCC1.O=C(O)C(F)(F)F [S-MGB-192] | – | 1.1 | – | 3190 nM | 33 | 108 ± 20.6 nM | 96.3 ± 12.8 nM | –
9 | CN(C)c1ccc(/C=C/c2ccc(C(=O)Nc3cc(C(=O)Nc4cc(C(=O)NCCN5CCOCC5)n(C)c4)n(C)c3)cn2)cc1.O=C(O)C(F)(F)F [S-MGB-245] | – | 1.1 | – | 2750 nM | 17 | 169.1 ± 0.5 nM | 161 ± 0.5 nM | –
10 | CN(C)CCNC(=O)c1cc(NC(=O)c2cc(NC(=O)c3ccc(/C=C/c4ccc(N(C)C)cc4)nc3)cn2C)cn1C.O=C(O)C(F)(F)F [S-MGB-246] | – | 1.2 | – | 3860 nM | 90 | 53 ± 0.4 nM | 43 ± 0.6 nM | –
11 | COc1cccc(/C=C/c2ccc(C(=O)Nc3cc(C(=O)Nc4cc(C(=O)NCCN(C)C)n(C)c4)n(C)c3)cc2)c1.O=C(O)C(F)(F)F [S-MGB-247] | – | 1.3 | – | – | >183.7 | 138.6 ± 0.2 nM | 108.9 ± 0.2 nM | 100%
12 | CN(C)CCNC(=O)c1cc(NC(=O)c2cc(NC(=O)c3ccc(/C=C/c4cnc5ccccc5c4)cc3)cn2C)cn1C.O=C(O)C(F)(F)F [S-MGB-248] | – | 1.7 | – | 3130 nM | 94 | 57 ± 0.6 nM | 33.4 ± 0.7 nM | –
13 | CC(C)CCn1cc(NC(=O)c2cc(NC(=O)c3cc(NC(=N)c4cc5ccccc5cn4)cn3C)cn2C)cc1C(=O)NCCCN(C)C.O=C(O)C(F)(F)F [S-MGB-330] | – | 1.6 | – | – | >98.1 | 636.1 ± 0.4 nM | 407.7 ± 0.1 nM | 100%
14 | CN(C)CCCNC(=O)c1cc(NC(=O)c2cc(NC(=O)c3cc(NC(=N)c4cc5ccccc5cn4)cn3C)cn2C)cn1C.O=C(O)C(F)(F)F [S-MGB-337] | – | 1.1 | – | – | >219.7 | 101.8 ± 0.2 nM | 95.6 nM | 101%
15 | Cn1cc(NC(=O)c2cc(NC(=O)c3ccc(/C=C/C(=O)Nc4ccccc4O)cc3)cn2C)cc1C(=O)NCCC(=N)N.O=C(O)C(F)(F)F [S-MGB-361] | – | 0.9 | – | – | >63.1 | 558.5 ± 0.4 nM | 633.9 ± 0.2 nM | 90%
16 | COc1ccc(/C=C/c2ccc(C(=O)Nc3cc(C(=O)Nc4cc(C(=O)NCCC(=N)N)n(C)c4)n(C)c3)cc2)cc1.O=C(O)C(F)(F)F [S-MGB-367] | – | – | – | – | >108.9 | 620.3 ± 0.3 nM | 367.3 ± 0.9 nM | 81%
17 | CC(C)CCc1sc(NC(=O)c2cc(NC(=O)c3ccc(/C=C/c4ccc(F)cc4)nc3)cn2C)nc1C(=O)NCCCN(C)C.O=C(O)C(F)(F)F [S-MGB-376] | – | 0.9 | – | 9100 nM | 62 | 135 ± 1.6 nM | 147.2 ± 1.4 nM | –
18 | CC(C)CCc1sc(NC(=O)c2cc(NC(=O)c3ccc(/C=C/c4ccc(C(F)(F)F)cc4)cc3)cn2C)nc1C(=O)NCCCN(C)C.O=C(O)C(F)(F)F [S-MGB-377] | – | 1.4 | – | 4300 nM | 59 | 105 ± 6.3 nM | 73.1 ± 4.7 nM | –
19 | CC(C)CCc1sc(NC(=O)c2cc(NC(=O)c3ccc(/C=C/c4cccc(F)c4)cc3)cn2C)nc1C(=O)NCCCN(C)C.O=C(O)C(F)(F)F [S-MGB-378] | – | 1.1 | – | 10500 nM | 70 | 171 ± 2.9 nM | 150 ± 4 nM | –
20 | CC(C)CCc1sc(NC(=O)c2cc(NC(=O)c3ccc(/C=C/c4ccc(F)cc4)cc3)cn2C)nc1C(=O)NCCCN(C)C.O=C(O)C(F)(F)F [S-MGB-379] | – | 1.0 | – | 8340 nM | 56 | 148 ± 5.4 nM | 150 ± 2.7 nM | –
21 | CC(C)CCc1sc(NC(=O)c2cc(NC(=O)c3ccc(/C=C/c4cccc(C(F)(F)F)c4)nc3)cn2C)nc1C(=O)NCCCN(C)C.O=C(O)C(F)(F)F [S-MGB-380] | – | 1.1 | – | 8200 nM | 110 | 83.9 ± 3.6 nM | 74.7 ± 2.8 nM | –
22 | CC(C)CCc1sc(NC(=O)c2cc(NC(=O)c3cc(NC(=O)c4cccc(F)c4)cn3C)cn2C)nc1C(=O)NCCCN(C)C.O=C(O)C(F)(F)F [S-MGB-386] | – | 0.8 | – | – | >157 | 207.1 ± 1.3 nM | 254.9 ± 1.2 nM | 101%
23 | Cn1cc(NC(=O)c2cc(NC(=O)c3ccc(NC(=O)c4ccc(F)cc4)cc3)cn2C)cc1C(=O)NCCC(=N)N.O=C(O)C(F)(F)F [S-MGB-388] | – | 1.3 | – | – | >192.9 | 228.6 ± 2 nM | 181 ± 2.2 nM | 93%
24 | Cn1cc(NC(=O)c2cc(NC(=O)c3ccc(NC(=O)c4cccc(F)c4)cc3)cn2C)cc1C(=O)NCCC(=N)N.O=C(O)C(F)(F)F [S-MGB-389] | – | 0.6 | – | – | >46.6 | 488 ± 1.8 nM | 857.5 ± 1.3 nM | 92%
25 | Cn1cc(NC(=O)c2cc(NC(=O)c3ccc(/C=C/c4ccc(F)cc4)cc3)cn2C)cc1C(=O)NCCC(=N)N.O=C(O)C(F)(F)F [S-MGB-390] | – | 1.2 | – | – | >75.1 | 640.2 ± 0.6 nM | 532.6 ± 0.9 nM | 78%
26 | Cn1cc(NC(=O)c2cc(NC(=O)c3ccc(/C=C/c4cccc(F)c4)cc3)cn2C)cc1C(=O)NCCC(=N)N.O=C(O)C(F)(F)F [S-MGB-391] | – | 1.9 | – | – | >59.6 | 1295.5 ± 0.7 nM | 671.3 ± 1.4 nM | 100%
